For five molecules, EC50 results are on record in ChEMBL document CHEMBL1158855, “Study on cytotoxic oxygenated desmosterols isolated from the red alga Galaxaura marginata” (1997).

In brackets after ≈: the same amount, converted by molar mass.

Type in all cases: functional
Common to all, as to details: read-out: ED50 (the source's name)

One assay concerns A549. In words: Cytotoxicity against human A549 cells by MTT assay.
In another assay the test system is P388. In words: Cytotoxicity against mouse P388 cells by MTT assay.
For a further assay, the system named is HT-29. Kind of assay: Cytotoxicity against human HT29 cells by MTT assay.
The test system of the next assay is KB. In words: Cytotoxicity against human KB cells by MTT assay.

Turning to `C=C(C)C(CC[C@@H](C)[C@H]1CC[C@H]2[C@@H]3C[C@@H](O)C4=CC(=O)CC[C@]4(C)[C@H]3CC[C@]12C)OO` (stereo not given in full), the EC50 in the assay on A549 was found to be 0.58 µg/mL (≈ 1.35 µM); in the assay with P388 it was 0.22 µg/mL (≈ 0.511 µM); in the assay on HT-29 it was 0.47 µg/mL (≈ 1.09 µM); in the assay on KB, 0.79 µg/mL (≈ 1.83 µM).

Take `C[C@H](C/C=C/C(C)(C)OO)[C@H]1CC[C@H]2[C@@H]3C[C@@H](O)C4=CC(=O)CC[C@]4(C)[C@H]3CC[C@]12C`: the EC50 in the assay with A549 was determined as 1 µg/mL (≈ 2.32 µM); in the assay on P388 it was 0.28 µg/mL (≈ 0.65 µM); with HT-29 it was 0.63 µg/mL (≈ 1.46 µM); in the assay on KB, 0.4 µg/mL (≈ 0.929 µM).

On to `C[C@H](C/C=C/C(C)(C)O)[C@H]1CC[C@H]2[C@@H]3C[C@@H](O)C4=CC(=O)CC[C@]4(C)[C@H]3CC[C@]12C`, for which the EC50 is 1.54 µg/mL (≈ 3.71 µM) in the assay with A549, 0.14 µg/mL (≈ 0.338 µM) with P388, 0.55 µg/mL (≈ 1.33 µM) with HT-29 and 0.45 µg/mL (≈ 1.09 µM) with KB.

For the molecule `C=C(C)C(=O)CC[C@@H](C)[C@H]1CC[C@H]2[C@@H]3CC(=O)C4=CC(=O)CC[C@]4(C)[C@H]3CC[C@]12C`, the EC50 in the assay with A549 worked out at 0.27 µg/mL (≈ 0.658 µM); with P388 it was 0.11 µg/mL (≈ 0.268 µM); in the assay on HT-29, 0.3 µg/mL (≈ 0.731 µM); in the assay on KB it was 0.24 µg/mL (≈ 0.585 µM).

For `C=C(C)C(O)CC[C@@H](C)[C@H]1CC[C@H]2[C@@H]3C[C@@H](O)C4=CC(=O)CC[C@]4(C)[C@H]3CC[C@]12C` (stereo not given in full), the EC50 in the assay with A549 came out at 2.37 µg/mL (≈ 5.72 µM); in the assay with P388, 0.19 µg/mL (≈ 0.458 µM); in the assay with HT-29 it was 0.3 µg/mL (≈ 0.724 µM); in the assay with KB it was 0.83 µg/mL (≈ 2 µM).
